Experimental data reported in ChEMBL document CHEMBL4433217, “Novel Phenyldiazenyl Fibrate Analogues as PPAR α/γ/δ Pan-Agonists for the Amelioration of Metabolic Syndrome” (ACS Med Chem Lett, 2019).
Active and inactive are the calls of the source. The calls are words filed in the database; no cut-off is given here.

Assays:
[1] = biological target: T1, Peroxisome proliferator-activated receptor delta (Homo sapiens) (UniProt Q03181); assay: Transactivation of GAL4-tagged human PPARdelta LBD expressed in human HepG2 cells at 100 nM to 100 uM incubated for 20 to 22 hrs by luciferase reporter gene assay relative to L165,041; assay type: cell-based
T1 sequence (whole entry): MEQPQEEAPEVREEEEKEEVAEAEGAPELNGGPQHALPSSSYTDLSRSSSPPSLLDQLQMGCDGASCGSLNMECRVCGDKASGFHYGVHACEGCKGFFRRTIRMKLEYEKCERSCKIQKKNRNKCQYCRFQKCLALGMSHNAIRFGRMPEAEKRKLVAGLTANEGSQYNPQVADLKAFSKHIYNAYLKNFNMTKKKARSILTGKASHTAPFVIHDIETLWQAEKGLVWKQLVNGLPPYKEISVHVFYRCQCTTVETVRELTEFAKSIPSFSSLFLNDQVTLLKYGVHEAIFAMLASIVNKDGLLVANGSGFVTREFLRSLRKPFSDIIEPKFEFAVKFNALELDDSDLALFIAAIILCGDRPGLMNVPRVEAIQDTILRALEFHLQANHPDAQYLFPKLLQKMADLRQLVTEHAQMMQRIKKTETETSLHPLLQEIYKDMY

[2] = biological target: T2, Peroxisome proliferator-activated receptor gamma (Homo sapiens) (UniProt P37231); assay: Transactivation of GAL4-tagged human PPARgamma LBD expressed in human HepG2 cells at 100 nM to 100 uM incubated for 20 to 22 hrs by luciferase reporter gene assay relative to rosiglitazone; assay type: cell-based
T2 sequence (whole entry): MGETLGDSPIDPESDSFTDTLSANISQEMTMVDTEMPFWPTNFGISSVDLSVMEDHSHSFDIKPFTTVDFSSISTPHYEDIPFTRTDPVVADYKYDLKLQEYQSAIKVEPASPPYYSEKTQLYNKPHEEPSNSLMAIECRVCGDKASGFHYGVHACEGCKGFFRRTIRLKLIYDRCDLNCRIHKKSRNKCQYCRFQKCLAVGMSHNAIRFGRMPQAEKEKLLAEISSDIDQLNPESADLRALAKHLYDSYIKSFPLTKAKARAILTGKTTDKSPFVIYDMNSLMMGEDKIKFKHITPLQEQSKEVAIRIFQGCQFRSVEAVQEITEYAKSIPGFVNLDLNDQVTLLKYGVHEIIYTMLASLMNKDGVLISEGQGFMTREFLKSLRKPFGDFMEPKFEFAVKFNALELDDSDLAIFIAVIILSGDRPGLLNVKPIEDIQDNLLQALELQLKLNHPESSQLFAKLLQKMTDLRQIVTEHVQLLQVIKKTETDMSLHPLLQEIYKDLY

[3] = biological target: T3, Peroxisome proliferator-activated receptor alpha (Homo sapiens) (UniProt Q07869); assay: Transactivation of GAL4-tagged human PPARalpha LBD expressed in human HepG2 cells at 100 nM to 100 uM incubated for 20 to 22 hrs by luciferase reporter gene assay relative to clofibric acid; assay type: cell-based
T3 sequence (whole entry): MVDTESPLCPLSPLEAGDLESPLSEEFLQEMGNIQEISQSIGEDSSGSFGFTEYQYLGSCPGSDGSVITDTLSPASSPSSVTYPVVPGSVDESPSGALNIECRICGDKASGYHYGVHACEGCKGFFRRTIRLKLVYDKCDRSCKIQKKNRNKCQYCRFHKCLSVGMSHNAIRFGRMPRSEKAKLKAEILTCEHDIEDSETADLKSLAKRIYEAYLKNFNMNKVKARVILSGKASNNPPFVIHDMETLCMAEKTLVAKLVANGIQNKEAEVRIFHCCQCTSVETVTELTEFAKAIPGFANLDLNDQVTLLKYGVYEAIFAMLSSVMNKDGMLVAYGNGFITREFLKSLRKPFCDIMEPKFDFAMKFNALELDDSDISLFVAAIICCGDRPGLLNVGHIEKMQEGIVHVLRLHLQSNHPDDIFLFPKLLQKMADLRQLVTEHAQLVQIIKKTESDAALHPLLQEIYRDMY

[4] = biological target: T4, Peroxisome proliferator-activated receptor delta (Homo sapiens, UniProt Q03181); assay: Transactivation of GAL4-tagged human PPARdelta LBD expressed in human HepG2 cells at 100 nM to 100 uM incubated for 20 to 22 hrs by luciferase reporter gene assay; assay type: cell-based
T4 sequence (Q03181 whole entry): T1 sequence (whole entry)

[5] = biological target: T5, Peroxisome proliferator-activated receptor alpha (Homo sapiens, UniProt Q07869); assay: Transactivation of GAL4-tagged human PPARalpha LBD expressed in human HepG2 cells at 100 nM to 100 uM incubated for 20 to 22 hrs by luciferase reporter gene assay; assay type: cell-based
T5 sequence (Q07869 whole entry): T3 sequence (whole entry)

Cortex [6] = assay: Ex vivo antiinflammatory activity in Sprague-Dawley rat cortex assessed as inhibition of LPS-induced PGE2 production at 1 uM incubated for 4 hrs followed by LPS addition by radioimmunoassay; assay type: functional, tissue-based
Liver [7] = assay: Ex vivo antiinflammatory activity in Sprague-Dawley rat liver assessed as inhibition of LPS-induced PGE2 production at 1 uM incubated for 4 hrs followed by LPS addition by radioimmunoassay; assay type: functional, tissue-based
[8] = biological target: T1, Peroxisome proliferator-activated receptor delta (Homo sapiens); assay: Agonist activity at PPARdelta in human HepG2 cells assessed as increase in PDK4 RNA expression at 2 uM incubated for 48 hrs by qRT-PCR analysis relative to control; assay type: cell-based
[9] = biological target: T3, Peroxisome proliferator-activated receptor alpha (Homo sapiens); assay: Agonist activity at PPARalpha in human HepG2 cells assessed as increase in CPT1A RNA expression at 100 uM incubated for 48 hrs by qRT-PCR analysis relative to control; assay type: cell-based
[10] = biological target: T2, Peroxisome proliferator-activated receptor gamma (Homo sapiens); assay: Agonist activity at PPARgamma in human HepG2 cells assessed as increase in GLUT1 RNA expression at 100 uM incubated for 48 hrs by qRT-PCR analysis relative to control; assay type: cell-based
[11] = biological target: T1, Peroxisome proliferator-activated receptor delta (Homo sapiens); assay: Agonist activity at PPARdelta in human HepG2 cells assessed as increase in PDK4 RNA expression at 100 uM incubated for 48 hrs by qRT-PCR analysis relative to control; assay type: cell-based
Liver [12] = assay: Ex vivo antiinflammatory activity in Sprague-Dawley rat liver assessed as inhibition of LPS-induced PGE2 production at 0.1 to 10 uM incubated for 4 hrs followed by LPS addition by radioimmunoassay; assay type: functional, tissue-based
Cortex [13] = assay: Ex vivo antiinflammatory activity in Sprague-Dawley rat cortex assessed as inhibition of LPS-induced PGE2 production at 0.1 to 10 uM incubated for 4 hrs followed by LPS addition by radioimmunoassay; assay type: functional, tissue-based
[14] = biological target: T6, Peroxisome proliferator-activated receptor gamma (Homo sapiens, UniProt P37231); assay: Transactivation of GAL4-tagged human PPARgamma LBD expressed in human HepG2 cells at 100 nM to 100 uM incubated for 20 to 22 hrs by luciferase reporter gene assay; assay type: cell-based
T6 sequence (P37231 whole entry): T2 sequence (whole entry)

[15] = biological target: T3, Peroxisome proliferator-activated receptor alpha (Homo sapiens); assay: Potency index, ratio of EC50 for GL479 to EC50 for test compound for transactivation of GAL4-tagged human PPARalpha LBD expressed in human HepG2 cells incubated for 20 to 22 hrs by luciferase reporter gene assay; assay type: cell-based

Row | Compound | Emax [1] [%] | Emax [2] [%] | Emax [3] [%] | EC50 [4] [µM] | EC50 [5] [µM] | also measured
1 | COc1ccc(/N=N/c2ccc(OCCc3ccc(OC(C)(C)C(=O)O)cc3)cc2)cc1 | 23 | 10 | 32 | 1.4 | 2.4 | 
2 | CCc1ccc(CCOc2ccc(CC3SC(=O)NC3=O)cc2)nc1 (stereo not drawn) |  |  |  |  |  | Activity (Cortex [6]): Active; Activity (Liver [7]): Active
3 | CC(C)(Oc1ccc(CCOc2ccc(/N=N/c3ccc(C(F)(F)F)cc3)cc2)cc1)C(=O)O | 24 | 8 | 35 | 1.8 | 2.3 | 
4 | CC(C)(Oc1ccc(OCCc2ccc(/N=N/c3ccc(Br)cc3)cc2)cc1)C(=O)O | 29 | 8 | 35 | 1.1 | 1.9 | 
5 | CC(C)(Oc1ccc(OCCc2ccc(/N=N/c3ccc(C(F)(F)F)cc3)cc2)cc1)C(=O)O | 12 | 9 | 37 |  | 2.2 | 
6 | CC(C)(Oc1ccc(OCCc2ccc(/N=N/c3ccc(Cl)cc3)cc2)cc1)C(=O)O | 41 | 10 | 52 | 1.2 | 0.51 | 
7 | CC(C)(Oc1ccc(OCCc2ccc(/N=N/c3ccc([N+](=O)[O-])cc3)cc2)cc1)C(=O)O | 28 | 10 | 19 | 2.3 |  | 
8 | CCCc1c(OCCCOc2ccc(OCC(=O)O)cc2)ccc(C(C)=O)c1O |  |  |  | 0.21 |  | Activity [8]: Active; Activity (Cortex [6]): inactive; Activity (Liver [7]): inactive
9 | CC(C)(Oc1ccc(CCOc2ccc(/N=N/c3ccc(C#N)cc3)cc2)cc1)C(=O)O | 20 | 12 | 25 | 6.5 | 2.6 | 
10 | CC(C)(Oc1ccc(CCOc2ccc(/N=N/c3ccc([N+](=O)[O-])cc3)cc2)cc1)C(=O)O | 21 | 14 | 11 | 4.1 |  | 
11 | CC(C)(Oc1ccc(OCCc2ccc(/N=N/c3ccc(C#N)cc3)cc2)cc1)C(=O)O | 50 | 12 | 61 | 2.8 | 1.4 | 
12 | CC(C)(Oc1ccc(OCCc2ccc(/N=N/c3ccccc3)cc2)cc1)C(=O)O | 35 | 24 | 69 | 2.8 | 0.25 | Activity [9]: Active; Activity [10]: Active; Activity [11]: Active; Activity (Liver [12]): Active; Activity (Cortex [13]): Active; EC50 [14]: 6 µM
13 | CC(C)(Oc1ccc(CCOc2ccc(/N=N/c3ccc(Cl)cc3)cc2)cc1)C(=O)O | 23 | 12 | 60 | 3.1 | 0.38 | Ratio EC50 [15]: 5
14 | CC(C)(Oc1ccc(CCOc2ccc(/N=N/c3ccc(Br)cc3)cc2)cc1)C(=O)O | 29 | 12 | 71 | 3.9 | 0.81 | Ratio EC50 [15]: 3
15 | CC(C)(Oc1ccc(CCOc2ccc(/N=N/c3ccccc3)cc2)cc1)C(=O)O | 39 | 13 | 56 | 6.4 | 2.1 | 
16 | Cc1cccc(Nc2cc(Cl)nc(SCC(=O)O)n2)c1C |  |  |  |  |  | Activity (Cortex [6]): Active; Activity (Liver [7]): Active
